Measurements as given in ChEMBL document CHEMBL1201862, “PubChem BioAssay data set” (2004).
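Briefly, cells in 96-well plates were exposed to five compound concentrations for 48 h, and endpoints were estimated by linear interpolation. GI50 is the concentration that inhibits growth by half.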 Active and inactive are the calls of the source. No stated cut-off is given here; in the data, active = GI50 up to about 1.1 µM and inactive = higher.

Key:
Test in all cases: DTP human tumour cell line panel, 48 h
OVCAR-4 = tested on: OVCAR-4
SK-MEL-28 = tested on: SK-MEL-28
LOX IMVI = tested on: LOX IMVI
HT-29 = tested on: HT-29
MOLT-4 = tested on: MOLT-4
A549 = tested on: A549
CCRF-CEM = tested on: CCRF-CEM
EKVX = tested on: EKVX
RPMI-8226 = tested on: RPMI-8226
COLO 205 = tested on: COLO 205
MCF7 = tested on: MCF7
UACC-257 = tested on: UACC-257
SK-MEL-2 = tested on: SK-MEL-2
U-251 = tested on: U-251
NCI-H522 = tested on: NCI-H522
CAKI-1 = tested on: CAKI-1
PC-3 = tested on: PC-3
UO-31 = tested on: UO-31
DU-145 = tested on: DU-145
HOP-92 = tested on: HOP-92

Compound | GI50 (OVCAR-4) | GI50 (SK-MEL-28) | GI50 (LOX IMVI) | GI50 (HT-29) | GI50 (MOLT-4) | GI50 (A549) | GI50 (CCRF-CEM) | GI50 (EKVX) | GI50 (RPMI-8226) | GI50 (COLO 205) | GI50 (MCF7) | GI50 (UACC-257) | GI50 (SK-MEL-2) | GI50 (U-251) | GI50 (NCI-H522) | GI50 (CAKI-1) | GI50 (PC-3) | GI50 (UO-31) | GI50 (DU-145) | GI50 (HOP-92)
COc1cc(O)c2c(c1)C(=O)c1cc3c(c(O)c1C2=O)C(OC1OC(C)C(OC)C(O)C1OC)C(OC)C(C)(O)C3=O (stereo not given) | 4.03 µM (inactive) | 7.01 µM (inactive) | 2.7 µM (inactive) | 3.37 µM (inactive) | 3.14 µM (inactive) | 3.55 µM (inactive) | 4.1 µM (inactive) | 3.37 µM (inactive) | 1.29 µM (inactive) | 3.09 µM (inactive) | 5.58 µM (inactive) | 4.28 µM (inactive) | 8.11 µM (inactive) | 5.33 µM (inactive) | 1.68 µM (inactive) | 3.04 µM (inactive) | 3.36 µM (inactive) |  |  | 
CC1=NN(c2nc(N)nc(-c3sccc3N)n2)C(C)(C)C1 | 21.7 µM (inactive) | 40.2 µM (inactive) | 90.4 µM (inactive) | > 100 µM (inactive) | 83.9 µM (inactive) | 35.8 µM (inactive) | 43.6 µM (inactive) | 82.6 µM (inactive) | 31.8 µM (inactive) | 79.1 µM (inactive) | 78 µM (inactive) | > 100 µM (inactive) |  | > 100 µM (inactive) | 32.7 µM (inactive) | > 100 µM (inactive) |  | > 100 µM (inactive) | > 100 µM (inactive) | > 100 µM (inactive)
CCCCCCC(=O)C/C(CCC(=O)N(Cc1ccccc1)Cc1ccccc1)=N\NC(N)=O | > 100 µM (inactive) | > 100 µM (inactive) | > 100 µM (inactive) | > 100 µM (inactive) | > 100 µM (inactive) | > 100 µM (inactive) | > 100 µM (inactive) | > 100 µM (inactive) | > 100 µM (inactive) | > 100 µM (inactive) |  | > 100 µM (inactive) | > 100 µM (inactive) | > 100 µM (inactive) | > 100 µM (inactive) | > 100 µM (inactive) |  | > 100 µM (inactive) |  | > 100 µM (inactive)
N#CC1=C(N)Nc2nc3ccccc3n2C1c1ccccc1 (stereo not given) |  |  | 62.7 µM (inactive) | 33.7 µM (inactive) | 49 µM (inactive) | 42 µM (inactive) | 6.44 µM (inactive) | 9.2 µM (inactive) | 6.41 µM (inactive) | > 100 µM (inactive) | 97.7 µM (inactive) | > 100 µM (inactive) | 77.8 µM (inactive) | 42.9 µM (inactive) |  | 46.8 µM (inactive) | 46.1 µM (inactive) | 64.3 µM (inactive) | 35.3 µM (inactive) | 
N#C/C(=C\c1ccccc1F)C(=O)c1ccccc1 | > 100 µM (inactive) | > 100 µM (inactive) | > 100 µM (inactive) | > 100 µM (inactive) | > 100 µM (inactive) | > 100 µM (inactive) | > 100 µM (inactive) | > 100 µM (inactive) | > 100 µM (inactive) | > 100 µM (inactive) |  | > 100 µM (inactive) | > 100 µM (inactive) | > 100 µM (inactive) | > 100 µM (inactive) | > 100 µM (inactive) |  | > 100 µM (inactive) |  | > 100 µM (inactive)
O=c1[nH]c2ccc(CC(=S)N3CCOCC3)cc2s1 |  | > 100 µM (inactive) | > 100 µM (inactive) | > 100 µM (inactive) | > 100 µM (inactive) |  | > 100 µM (inactive) | > 100 µM (inactive) | > 100 µM (inactive) | > 100 µM (inactive) | > 100 µM (inactive) | > 100 µM (inactive) | > 100 µM (inactive) | > 100 µM (inactive) |  | > 100 µM (inactive) | > 100 µM (inactive) |  | > 100 µM (inactive) | 
CC(=O)Nc1ccc(-c2nnc(SCC(=O)Nc3ccc([N+](=O)[O-])cc3)o2)cc1 | 13.4 µM (inactive) | 14.3 µM (inactive) | 5.15 µM (inactive) | 13.4 µM (inactive) | 12.2 µM (inactive) | 17.5 µM (inactive) | 12.6 µM (inactive) |  | 24.7 µM (inactive) | 14.2 µM (inactive) |  | 12.1 µM (inactive) | 14.3 µM (inactive) | 14.7 µM (inactive) | 7.85 µM (inactive) | 14.3 µM (inactive) |  | 18.9 µM (inactive) |  | 22.9 µM (inactive)
O=C(Cn1c2ccc(Br)cc2c2nc3ccccc3nc21)NNC(=S)NC1CCCCC1 | 12.6 µM (inactive) | 14.7 µM (inactive) | 12.4 µM (inactive) | 15.5 µM (inactive) | 10.7 µM (inactive) | 10.6 µM (inactive) | 0.794 µM (active) | 18.6 µM (inactive) | 13.9 µM (inactive) | 13.2 µM (inactive) |  | 16.4 µM (inactive) | 17.2 µM (inactive) | 15 µM (inactive) | 14.5 µM (inactive) | 18 µM (inactive) | 11.7 µM (inactive) | 10.5 µM (inactive) | 15.5 µM (inactive) | 11.8 µM (inactive)
